Assay [1] concerns the target T1, c-Met (cytoplasmic domain) (Homo sapiens, UniProt P08581).
T1 construct: 10 ng/mL c-Met (cytoplasmic domain, Invitrogen Corporation #PV3143); purchased Invitrogen Corporation PV3143
The assay can be described thus: c-Met Kinase Assay (same methods as for ALK, with modifications). The conditions noted are these: c-Met kinase inhibition, 1 μM ATP (Km level); read-out: cMet Activity. Format: biochemical. The method, boiled down: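 Wells were coated with 10 μg/mL phospholipase C-γ substrate in TBS, and reactions were started with 10 ng/mL c-Met cytoplasmic domain and run at 37° C for 15 minutes. Phosphorylated product was detected with Eu-N1-labeled PT66 antibody. IC50 values came from sigmoidal variable-slope fits of percent inhibition versus log compound concentration.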

The target of assay [2] is T2, baculovirus-expressed ALK (Homo sapiens, UniProt Q9UM73).
T2 construct: host or cells: baculovirus expression system
T2 sequence (Q9UM73 19-1620): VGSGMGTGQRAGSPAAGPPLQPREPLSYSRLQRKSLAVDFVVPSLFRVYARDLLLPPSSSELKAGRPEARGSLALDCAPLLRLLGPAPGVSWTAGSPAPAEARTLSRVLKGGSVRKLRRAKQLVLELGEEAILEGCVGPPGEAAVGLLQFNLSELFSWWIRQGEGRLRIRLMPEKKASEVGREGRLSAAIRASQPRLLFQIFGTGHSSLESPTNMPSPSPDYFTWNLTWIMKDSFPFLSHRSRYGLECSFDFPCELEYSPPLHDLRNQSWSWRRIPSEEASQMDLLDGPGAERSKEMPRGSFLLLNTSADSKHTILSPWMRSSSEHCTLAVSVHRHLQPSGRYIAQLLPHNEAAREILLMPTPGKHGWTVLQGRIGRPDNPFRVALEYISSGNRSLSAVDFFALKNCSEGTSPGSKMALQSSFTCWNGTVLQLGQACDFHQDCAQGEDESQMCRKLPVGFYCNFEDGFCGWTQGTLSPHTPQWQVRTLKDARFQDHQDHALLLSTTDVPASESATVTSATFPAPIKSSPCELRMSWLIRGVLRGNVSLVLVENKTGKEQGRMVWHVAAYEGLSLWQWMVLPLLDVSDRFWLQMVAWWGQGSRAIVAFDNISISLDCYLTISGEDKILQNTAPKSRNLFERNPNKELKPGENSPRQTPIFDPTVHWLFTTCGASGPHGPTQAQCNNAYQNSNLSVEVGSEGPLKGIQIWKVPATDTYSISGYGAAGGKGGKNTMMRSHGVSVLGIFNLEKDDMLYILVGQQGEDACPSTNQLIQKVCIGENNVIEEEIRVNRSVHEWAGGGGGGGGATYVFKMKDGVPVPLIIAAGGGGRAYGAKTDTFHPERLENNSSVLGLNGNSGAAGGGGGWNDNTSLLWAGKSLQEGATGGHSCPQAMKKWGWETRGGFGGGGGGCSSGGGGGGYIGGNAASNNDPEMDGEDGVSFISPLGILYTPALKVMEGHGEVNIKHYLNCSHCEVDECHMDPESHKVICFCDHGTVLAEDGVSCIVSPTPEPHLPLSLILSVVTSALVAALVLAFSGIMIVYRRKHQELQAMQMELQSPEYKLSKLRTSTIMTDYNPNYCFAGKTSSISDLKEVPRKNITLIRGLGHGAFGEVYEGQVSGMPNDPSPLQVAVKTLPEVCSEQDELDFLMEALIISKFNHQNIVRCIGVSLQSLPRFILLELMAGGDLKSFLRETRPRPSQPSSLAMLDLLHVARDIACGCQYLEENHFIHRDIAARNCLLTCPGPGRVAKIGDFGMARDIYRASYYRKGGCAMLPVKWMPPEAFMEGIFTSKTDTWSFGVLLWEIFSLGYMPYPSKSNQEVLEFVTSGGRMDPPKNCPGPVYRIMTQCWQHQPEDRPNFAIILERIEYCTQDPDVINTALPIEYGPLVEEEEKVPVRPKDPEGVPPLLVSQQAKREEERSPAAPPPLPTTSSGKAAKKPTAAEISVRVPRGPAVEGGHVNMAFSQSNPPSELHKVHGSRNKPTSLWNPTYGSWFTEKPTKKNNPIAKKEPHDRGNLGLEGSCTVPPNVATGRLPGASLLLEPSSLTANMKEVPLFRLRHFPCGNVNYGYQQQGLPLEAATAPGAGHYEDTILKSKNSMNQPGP
Kind of assay: ALK Kinase Assay (ELISA-type, time-resolved fluorescence). Format: biochemical. The conditions noted are these: ALK kinase inhibition, 1 μM ATP (Km level); read-out: ALK Activity. The gist of the method:
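Substrate coating: phospholipase C-γ, 10 μg/mL in TBS. Kinase step: 30 ng/ml ALK, 15 min, 37° C. Detection and analysis: Eu-N1 PT66 antibody, with IC50 fitted as a sigmoidal variable-slope dose-response curve.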
(In an ELISA, binding on a coated surface is turned into a signal by an enzyme label.)

Structures are written as SMILES. Where a name gives a salt, the structure may show the parent alone.

T1 sequence (P08581 956-1390 limits assumed): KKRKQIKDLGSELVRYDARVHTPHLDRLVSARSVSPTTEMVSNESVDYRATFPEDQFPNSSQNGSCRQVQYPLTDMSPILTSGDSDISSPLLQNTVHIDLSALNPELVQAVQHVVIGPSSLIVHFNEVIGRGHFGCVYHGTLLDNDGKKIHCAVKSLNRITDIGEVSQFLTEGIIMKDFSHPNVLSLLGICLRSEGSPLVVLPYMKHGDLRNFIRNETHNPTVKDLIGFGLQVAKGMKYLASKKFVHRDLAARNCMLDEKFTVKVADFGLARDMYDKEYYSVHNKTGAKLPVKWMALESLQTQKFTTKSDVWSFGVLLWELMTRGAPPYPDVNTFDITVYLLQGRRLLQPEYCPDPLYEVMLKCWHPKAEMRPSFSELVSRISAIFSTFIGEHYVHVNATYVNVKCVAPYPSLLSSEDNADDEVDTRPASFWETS

Consider `COCCN1CCN(C)c2ccc(Nc3ncc(Cl)c(N[C@@H]4CCCC[C@H]4NS(C)(=O)=O)n3)cc2C1` [Example 430, N-((1R,2R)-2-{5-Chloro-2-[4-(2-methoxy-ethyl)-1-methyl-2,3,4,5-tetrahydro-1H-benzo[e][1,4]diazepin-7-ylamino]-pyrimidin-4-ylamino}-cyclohexyl)-methanesulfonamide], for which the IC50 in assay [1] was 1000 to 10000 nM; in assay [2] it was under 100 nM.
The matching figures for `CCN1CCN(CC)c2cc(Nc3ncc(Cl)c(Nc4ccccc4NS(C)(=O)=O)n3)c(Cl)cc2C1` [Example 431, N-{2-[5-Chloro-2-(7-chloro-1,4-diethyl-2,3,4,5-tetrahydro-1H-benzo[e][1,4]diazepin-8-ylamino)-pyrimidin-4-ylamino]-phenyl}-methanesulfonamide]: 1000 to 10000 nM and under 100 nM.
On the same counts, the results for `CNC(=O)c1ccccc1Nc1nc(Nc2ccc3c(c2)CN(CCOC)CCN3C)ncc1Cl` [Example 432, 2-{5-Chloro-2-[4-(2-methoxy-ethyl)-1-methyl-2,3,4,5-tetrahydro-1H-benzo[e][1,4]diazepin-7-ylamino]-pyrimidin-4-ylamino}-N-methyl-benzamide] are under 100 nM and under 100 nM.
On to `CCN1CCc2ccc(Nc3ncc(Cl)c(N[C@@H]4CCCC[C@H]4NS(C)(=O)=O)n3)cc2CC1` [Example 441, N-{(1R,2R)-2-[5-Chloro-2-(3-ethyl-2,3,4,5-tetrahydro-1H-benzo[d]azepin-7-ylamino)-pyrimidin-4-ylamino]-cyclohexyl}methanesulfonamide], for which the IC50 in assay [1] is 100 to 1000 nM; in assay [2], under 100 nM.
The matching figures for `CCN1CCc2ccc(Nc3ncc(Cl)c(Nc4ccc(N5CCOCC5)cc4OC)n3)cc2CC1` [Example 442, 5-Chloro-N*2*-(3-ethyl-2,3,4,5-tetrahydro-1H-benzo[d]azepin-7-yl)-N*4*-(2-methoxy-4-morpholin-4-yl-phenyl)-pyrimidine-2,4-diamine]: 1000 to 10000 nM and under 100 nM.
The matching figures for `CCN1CCc2ccc(Nc3ncc(Cl)c(Nc4ccc(N5CCOCC5)cc4)n3)cc2CC1` [Example 443, 5-Chloro-N*2*-(3-ethyl-2,3,4,5-tetrahydro-1H-benzo[d]azepin-7-yl)-N*4*-(4-morpholin-4-yl-phenyl)-pyrimidine-2,4-diamine]: 1000 to 10000 nM and under 100 nM.
The matching figures for `CCN1CCc2ccc(Nc3ncc(Cl)c(Nc4cccc(N5CCOCC5)c4)n3)cc2CC1` [Example 444, 5-Chloro-N*2*-(3-ethyl-2,3,4,5-tetrahydro-1H-benzo[d]azepin-7-yl)-N*4*-(3-morpholin-4-yl-phenyl)-pyrimidine-2,4-diamine]: 1000 to 10000 nM and under 100 nM.
On to `CCN1CCc2ccc(Nc3ncc(Cl)c(N[C@@H]4CCCC[C@H]4NC(C)=O)n3)cc2CC1` [Example 445, N-{(1R,2R)-2-[5-Chloro-2-(3-ethyl-2,3,4,5-tetrahydro-1H-benzo[d]azepin-7-ylamino)-pyrimidin-4-ylamino]-cyclohexyl}-acetamide], for which the IC50 in assay [1] and in assay [2] was under 100 nM in each case.
With `CCN1CCc2ccc(Nc3ncc(Cl)c(N[C@@H]4CCCC[C@H]4NC(=O)C(F)(F)F)n3)cc2CC1` [Example 446, N-{(1R,2R)-2-[5-Chloro-2-(3-ethyl-2,3,4,5-tetrahydro-1H-benzo[d]azepin-7-ylamino)-pyrimidin-4-ylamino]-cyclohexyl}-2,2,2-trifluoro-acetamide], the IC50 was 100 to 1000 nM in assay [1] and under 100 nM in assay [2].
The matching figures for `CCN1CCc2ccc(Nc3ncc(Cl)c(N[C@@H]4CCCC[C@H]4NC(=O)N(C)C)n3)cc2CC1` [Example 447, 3-{(1R,2R)-2-[5-Chloro-2-(3-ethyl-2,3,4,5-tetrahydro-1H-benzo[d]azepin-7-ylamino)-pyrimidin-4-ylamino]-cyclohexyl}-1,1-dimethyl-urea]: 100 to 1000 nM and 100 to 1000 nM.
In the case of `CNC(=O)c1ccccc1Nc1nc(Nc2ccc3c(c2)CCN(C[C@@H](O)C(F)(F)F)CC3)ncc1Cl` [Example 448, 2-{5-Chloro-2-[3-((R)-3,3,3-trifluoro-2-hydroxy-propyl)-2,3,4,5-tetrahydro-1H-benzo[d]azepin-7-ylamino]-pyrimidin-4-ylamino}-N-methyl-benzamide], the IC50 in assay [1] and in assay [2] was under 100 nM each time.
`CS(=O)(=O)N[C@@H]1CCCC[C@H]1Nc1nc(Nc2ccc3c(c2)CCN(C[C@@H](O)C(F)(F)F)CC3)ncc1Cl` [Example 449, N-((1R,2R)-2-{5-Chloro-2-[3-((R)-3,3,3-trifluoro-2-hydroxy-propyl)-2,3,4,5-tetrahydro-1H-benzo[d]azepin-7-ylamino]-pyrimidin-4-ylamino}-cyclohexyl)-methanesulfonamide]: the IC50 is 100 to 1000 nM in assay [1] and under 100 nM in assay [2].
On the same counts, the results for `COCCN1CCc2ccc(Nc3ncc(Cl)c(N[C@@H]4CCCC[C@H]4NC(=O)C(F)(F)F)n3)cc2CC1` [Example 450, N-((1R,2R)-2-{5-Chloro-2-[3-(2-methoxy-ethyl)-2,3,4,5-tetrahydro-1H-benzo[d]azepin-7-ylamino]-pyrimidin-4-ylamino}-cyclohexyl)-2,2,2-trifluoro-acetamide] are 100 to 1000 nM and under 100 nM.
For the molecule `COCCN1CCc2ccc(Nc3ncc(Cl)c(N[C@@H]4CCCC[C@H]4N)n3)cc2CC1` [Example 451, N*4*-((1R,2R)-2-Amino-cyclohexyl)-5-chloro-N*2*-[3-(2-methoxy-ethyl)-2,3,4,5-tetrahydro-1H-benzo[d]azepin-7-yl]-pyrimidine-2,4-diamine], the IC50 in assay [1] lay within 1000 to 10000 nM; in assay [2] it was 100 to 1000 nM.
The matching figures for `COCCN1CCc2ccc(Nc3ncc(Cl)c(N[C@@H]4CCCC[C@H]4NS(=O)(=O)CC(F)(F)F)n3)cc2CC1` [Example 452, 2,2,2-Trifluoro-ethanesulfonic acid ((1R,2R)-2-{5-chloro-2-[3-(2-methoxy-ethyl)-2,3,4,5-tetrahydro-1H-benzo[d]azepin-7-ylamino]-pyrimidin-4-ylamino}-cyclohexyl)-amide]: 1000 to 10000 nM and under 100 nM.
On the same counts, the results for `CCS(=O)(=O)N[C@@H]1CCCC[C@H]1Nc1nc(Nc2ccc3c(c2)CCN(CCOC)CC3)ncc1Cl` [Example 453, Ethanesulfonic acid ((1R,2R)-2-{5-chloro-2-[3-(2-methoxy-ethyl)-2,3,4,5-tetrahydro-1H-benzo[d]azepin-7-ylamino]-pyrimidin-4-ylamino}-cyclohexyl)-amide] are 1000 to 10000 nM and under 100 nM.
In the case of `COCCN1CCc2ccc(Nc3ncc(Cl)c(N[C@@H]4CCCC[C@H]4NS(=O)(=O)C4CC4)n3)cc2CC1` [Example 454, Cyclopropanesulfonic acid ((1R,2R)-2-{5-chloro-2-[3-(2-methoxy-ethyl)-2,3,4,5-tetrahydro-1H-benzo[d]azepin-7-ylamino]-pyrimidin-4-ylamino}-cyclohexyl)-amide], the IC50 in assay [1] is 1000 to 10000 nM; in assay [2] it was 100 to 1000 nM.
In the case of `CNC(=O)c1cccc(F)c1Nc1nc(Nc2ccc3c(c2)C2CCC(C3)N2CCOC)ncc1Cl` (stereo not shown) [Example 456, 2-{5-Chloro-2-[12-(2-methoxy-ethyl)-12-aza-tricyclo[7.2.1.0(2,7)]dodeca-2(7),3,5-trien-4-ylamino]-pyrimidin-4-ylamino}-3-fluoro-N-methyl-benzamide], the IC50 in assay [1] and in assay [2] was under 100 nM throughout.
In the case of `COCCN1C2CCC1c1cc(Nc3ncc(Cl)c(Nc4c(F)cccc4C(=O)OC(C)C)n3)ccc1C2` (stereo not shown) [Example 457, 2-{5-Chloro-2-[12-(2-methoxy-ethyl)-12-aza-tricyclo[7.2.1.0(2,7)]dodeca-2(7),3,5-trien-4-ylamino]-pyrimidin-4-ylamino}-3-fluoro-benzoic acid isopropyl ester], the IC50 in assay [1] and in assay [2] was 100 to 1000 nM each time.
Consider `CNC(=O)c1cccc(Cl)c1Nc1nc(Nc2ccc3c(c2)N(C)CCNC3)ncc1Cl` [Example 460, 3-Chloro-2-[5-chloro-2-(1-methyl-2,3,4,5-tetrahydro-1H-benzo[e][1,4]diazepin-8-ylamino)-pyrimidin-4-ylamino]-N-methyl-benzamide], for which the IC50 was under 100 nM in assay [1] and 100 to 1000 nM in assay [2].
The matching figures for `COc1cc2c(cc1Nc1ncc(Cl)c(N[C@@H]3CCCC[C@H]3NS(C)(=O)=O)n1)CCN(C[C@H](O)C(F)(F)F)CC2` [Example 461, N-((1R,2R)-2-{5-Chloro-2-[8-methoxy-3-((S)-3,3,3-trifluoro-2-hydroxy-propyl)-2,3,4,5-tetrahydro-1H-benzo[d]azepin-7-ylamino]-pyrimidin-4-ylamino}-cyclohexyl)-methanesulfonamide]: over 10000 nM and under 100 nM.
For the molecule `COc1cc2c(cc1Nc1ncc(Cl)c(Nc3ccc(N4CCOCC4)cc3OC)n1)CCN(C[C@H](O)C(F)(F)F)CC2` [Example 462, (S)-3-{7-[5-Chloro-4-(2-methoxy-4-morpholin-4-yl-phenylamino)-pyrimidin-2-ylamino]-8-methoxy-1,2,4,5-tetrahydro-benzo[d]azepin-3-yl}-1,1,1-trifluoro-propan-2-ol], the values for the IC50 in assay [1] and in assay [2] were over 10000 nM and under 100 nM, respectively.
The matching figures for `CN1CCNCc2ccc(Nc3ncc(Cl)c(Nc4ccccc4NS(C)(=O)=O)n3)cc21` [Example 471, N-{2-[5-Chloro-2-(1-methyl-2,3,4,5-tetrahydro-1H-benzo[e][1,4]diazepin-8-ylamino)-pyrimidin-4-ylamino]-phenyl}-methanesulfonamide hydrochloride]: 1000 to 10000 nM and under 100 nM.

These data come from US8148391B2 (Cephalon, Inc., priority 2006, dated 2012).
